# From patent US12285403B2, “A2-73 as a therapeutic for insomnia, anxiety and agitation” (Anavex Life Sciences Corp., priority 2016, dated 2025)
# Entries after “also recorded” stand apart in the source; their conditions may differ.
# Tests used:
# Format in all cases: in vivo, human
# [1] = tested on: mild-to-moderate Alzheimer's disease patients; test: MMSE (Mini-Mental State Examination), Phase 2a study; details: over 31 weeks; for MMSE scores: oral daily 10 mg to 50 mg, FIG. 1
# Description: Although the present invention calls for methods of treating insomnia, some primary sleep disorders, such as circadian rhythm disorders, advanced sleep phase disorder also termed sleep onset insomnia, mid-nocturnal insomnia, early morning insomnia, hyper insomnia, trouble staying asleep, jet lag, narcolepsy, non-24-hour sleep-wake syndrome, include insomnia as a component of the disorder. Thus, the term “insomnia” should be understood to also include the insomnia component of these disorders. • Aβ—Amyloid beta is abbreviated as Aβ. • AD—Alzheimer's disease is abbreviated as AD. • ADCS-ADL—Alzheimer's Disease Cooperative Study Activities of Daily Living Inventory is abbreviated as ADCS-ADL. • Cogstate tasks—Cogstate tasks refers to Cogstate cognitive tests (Cogstate Alzheimer's Battery) using visual and verbal stimuli to ensure assessment. These tests assess cognitive function in adults with mild cognitive impairment and clinically-diagnosed Alzheimer's disease. The test is culture-neutral and not limited by a subject or participant's level of education. A Cogstate battery comprises a number of individual tests—each designed to test a specific area of cognition. When a number of these individual tests are put together to form a test battery, a more complete picture of a person's cognitive state can be defined. • DPZ—Donepezil is abbreviated as DPZ. • EEG/ERP—EEG/ERP is a reference to ERP measured via EEG. • ERP—Event-related potential is abbreviated as ERP. • HAM-D—Hamilton Depression Rating Scale is abbreviated as HAM-D. • MCI—Mild cognitive impairment is abbreviated as MCI. • MMSE—MMSE refers to the Mini-Mental State Examination (MMSE) or Folstein test. This test is a 30-point questionnaire that is used extensively in clinical and research settings to measure cognitive impairment. • SWS—Slow-wave sleep is abbreviated as SWS. • WASO.—Waking after sleep onset is abbreviated WASO.
# Efficacy data is presented through 31 week from the randomized (into different treatment regimens) open-label study with ANAVEX 2-73 oral daily dosing ranging from 10 mg to 50 mg. […]
# [2] = tested on: mild-to-moderate Alzheimer's disease patients; test: Cogstate test battery, Phase 2a study; details: over 31 weeks of treatment; FIG. 8; listed as ANAVEX 2-73, hydrochloride
# Description: Although the present invention calls for methods of treating insomnia, some primary sleep disorders, such as circadian rhythm disorders, advanced sleep phase disorder also termed sleep onset insomnia, mid-nocturnal insomnia, early morning insomnia, hyper insomnia, trouble staying asleep, jet lag, narcolepsy, non-24-hour sleep-wake syndrome, include insomnia as a component of the disorder. Thus, the term “insomnia” should be understood to also include the insomnia component of these disorders. • Aβ—Amyloid beta is abbreviated as Aβ. • AD—Alzheimer's disease is abbreviated as AD. • ADCS-ADL—Alzheimer's Disease Cooperative Study Activities of Daily Living Inventory is abbreviated as ADCS-ADL. • Cogstate tasks—Cogstate tasks refers to Cogstate cognitive tests (Cogstate Alzheimer's Battery) using visual and verbal stimuli to ensure assessment. […] When a number of these individual tests are put together to form a test battery, a more complete picture of a person's cognitive state can be defined. • DPZ—Donepezil is abbreviated as DPZ. • EEG/ERP—EEG/ERP is a reference to ERP measured via EEG. • ERP—Event-related potential is abbreviated as ERP. • HAM-D—Hamilton Depression Rating Scale is abbreviated as HAM-D. • MCI—Mild cognitive impairment is abbreviated as MCI. • MMSE—MMSE refers to the Mini-Mental State Examination (MMSE) or Folstein test. […]
# [3] = Safety, tolerability and patient retention, Phase 2a study
# Description: The safety and efficacy of A2-73 has been studied Phase 2a Study in mild-moderate Alzheimer's disease patients. […] Without being bound by any particular theory, it is believed that A2-73 activates the stress-reducing and survival protein, the Sigma-1 receptor. The data of Table 1 is from an open-label, clinical trial, performed on a group of 30 mild-to-moderate AD patients (MMSE range 16-23, 40% female) on donepezil treatment, with […] 2-73. […]
compound,measurement,setting,value
"CN(C)CC1CCOC1(c1ccccc1)c1ccccc1.Cl (stereo not drawn) [A2-73, tetrahydro-N,N-dimethyl-2,2-diphenyl-3-furanmethanamine hydrochloride]",MMSE scores,[1]; hydrochloride,maintained at the same level
same,MMSE scores,"[1]; listed as ANAVEX 2-73, hydrochloride",preserves average MMSE and ADCS-ADL scores
same,"MMSE score, ANAVEX 2-73 alone vs ANAVEX 2-73 with DPZ (donepezil)","[1]; exploratory analysis, FIG. 5",no notable difference
same,"Cogstate tasks: psychomotor function, attention and working memory",[2],sustained benefit; also recorded: benefits over baseline
same,Adverse event: headache,[3]; 30 mg,10%
same,Adverse event: mild dizziness,[3]; 30 mg,5%
same,Changes in clinical labs and EKGs,[3]; 30 mg,no significant changes
same,Tolerability,[3]; 30 mg,well tolerated
same,Safety and tolerability/risk profile,"[3]; 32 patients with mild-to-moderate AD, Phase 2a",favorable safety and tolerability/risk profile
